According to patent US20240391954A1, “MC4R AGONIST PEPTIDES” (The Regents of the University of Michigan, priority 2021, published 2024):
Where two headings read alike, the source gives them in different places. Positions of bridges follow the written chain, without caps; N, C: chain ends. Non-standard residues stand in square brackets, D forms with d. Residues, ends and D or L forms follow the SMILES beside them. dPhe(4-tBu) = CC(C)(C)c1ccc(C[C@@H](N)C(=O)O)cc1; dBip = N[C@H](Cc1ccc(-c2ccccc2)cc1)C(=O)O; dPhe(4-Br) = N[C@H](Cc1ccc(Br)cc1)C(=O)O; dPhe(4-I) = N[C@H](Cc1ccc(I)cc1)C(=O)O; d2Nal = N[C@H](Cc1ccc2ccccc2c1)C(=O)O; hCit = NC(=O)NCCCC[C@H](N)C(=O)O; Cit = NC(=O)NCCC[C@H](N)C(=O)O; Nle = CCCC[C@H](N)C(=O)O

How the values were obtained:
[1] = target: T1, human MC3R (Homo sapiens, UniProt P41968); experiment: split-luciferase cAMP sensor assay, agonist mode (measurement window 1), hMC3R; type: cell-based; conditions: for Emax: read-out: MC3R cAMP % max activation
T1 construct: expressed in transfected cells; host or cells: HEK-293 cells stably expressing the GScAMP22F split-luciferase cAMP sensor (parent reporter line from Promega); MC3R clone generated in-house, G418 selection
Experimental: (§1) The stable cell lines were grown and maintained in selection media consisting of Dulbecco's modified Eagle media (DMEM) with 4.5 g/l D-glucose, and 4 mM L-glutamine (Thermo Fisher Scientific, Waltham, MA), supplemented with 10% fetal bovine serum, 100 units/ml penicillin, 100 μg/ml streptomycin, 2.5 μg/ml amphotericin B, 200 μg/ml hygromycin B (for positive selection of the GScAMP22f luciferase reporter), and Geneticin™ (G418) 700 μg/ml (for MC3R or MC4R selection). Actual serum concentration during the assay is estimated to be about 1%. Cell line identity is routinely verified by qPCR and MC3R-and MC4R-specific oligonucleotides.
(§2) The assay for the determination of the cAMP response in live cells was described previously. […] Cells were seeded at a density of 20,000 cells per well using 384-well poly-D lysine-coated, clear bottom, and black-wall assay plates (Corning Inc. Corning, NJ). Cells were allowed to attach to the plates for 18 to 24 h after which growth media was removed and 20 μl of 4% D-luciferin (Promega) in CO2 independent, serum-free medium (Thermo Fisher Scientific) was added to each well. […] Intracellular cAMP levels were measured using an FDSS 7000EX Functional Drug Screening System (Hamamatsu Photonics, Hamamatsu, Japan) in the Center for Chemical Genomics at the Life Sciences Institute. This instrument allowed the in-line addition of test-peptides and receptor agonists while simultaneously acquiring the luminescence signal from live cells. […] A submaximal forskolin (20 μM) concentration was also included to serve as a normalization reference to account for cell number variations and differences in assay transducer efficiency between cell lines.
(§3) With this set up it was possible to evaluate the direct effect of the test-peptides on the MC3R and MC4R cell lines during measurement window 1, while the antagonist profile in the presence of EC90 α-MSH was determined on measurement window 2. […] EC50 or IC50 potency values were determined by non-linear regression by fitting the data to a sigmoid four-parameter variable slope model using the GraphPad Prism version 8.4 software package (San Diego CA).

[2] = target: T2, human MC4R (Homo sapiens, UniProt P32245); experiment: split-luciferase cAMP sensor assay, agonist mode (measurement window 1), hMC4R; type: cell-based; conditions: for Emax / EC50: agonist mode; for Emax: read-out: MC4R cAMP % max activation
T2 construct: host or cells: HEK-293 cells stably expressing the GScAMP22F split-luciferase cAMP sensor and hMC4R, G418 selection
Experimental: as §1, §2, §3

[3] = % maximal activation, agonist mode
[4] = agonist mode, hMC3R stable cell line
[5] = hMC4R stable cell line, read-out: MC4R cAMP EC50
[6] = agonist mode, hMC3R stable cell line, read-out: MC3R cAMP EC50
[7] = HEK-293 cells stably expressing hMC4R, read-out: MC4R cAMP EC50

T1 sequence (P41968 whole entry): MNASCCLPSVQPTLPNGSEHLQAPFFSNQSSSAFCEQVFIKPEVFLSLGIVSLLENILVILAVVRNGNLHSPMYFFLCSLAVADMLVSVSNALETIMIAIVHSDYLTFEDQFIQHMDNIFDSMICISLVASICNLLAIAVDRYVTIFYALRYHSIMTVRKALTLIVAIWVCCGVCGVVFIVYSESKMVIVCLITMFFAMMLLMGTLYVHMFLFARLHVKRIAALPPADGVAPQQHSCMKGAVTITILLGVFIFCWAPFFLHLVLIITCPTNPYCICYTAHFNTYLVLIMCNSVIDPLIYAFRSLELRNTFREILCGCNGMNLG
T2 sequence (P32245 whole entry): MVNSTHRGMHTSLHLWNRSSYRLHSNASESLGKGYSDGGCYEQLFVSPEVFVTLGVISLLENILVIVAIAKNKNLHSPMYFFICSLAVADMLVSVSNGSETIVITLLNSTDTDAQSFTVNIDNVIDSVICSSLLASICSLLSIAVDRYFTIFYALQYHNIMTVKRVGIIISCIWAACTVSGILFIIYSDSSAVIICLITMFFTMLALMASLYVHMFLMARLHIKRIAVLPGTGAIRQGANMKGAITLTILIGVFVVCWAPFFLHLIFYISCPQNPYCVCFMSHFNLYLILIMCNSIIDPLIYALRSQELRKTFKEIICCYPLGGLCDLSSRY

Row | Compound | MC4R selectivity vs MC1R [2] | MC4R selectivity vs MC3R [2] | Emax ([2]; hMC4R stable cell line) [%] | Emax [1, 4] [%] | Emax ([2]; % maximal activation) [%] | also measured
1 | CCCC[C@H](NC(=O)[C@H](CCCNC(=N)N)NC(C)=O)C(=O)N[C@H]1CSSC[C@@H](C(N)=O)NC(=O)[C@H](Cc2c[nH]c3ccccc23)NC(=O)[C@H](CCCNC(=N)N)NC(=O)[C@@H](Cc2ccccc2)NC(=O)[C@H](CCCNC(N)=O)NC1=O [CTX-1607, Arg-Nle-cyclo(Cys-Cit-D-Phe-Arg-Trp-Cys)] (Ac-R[Nle]C[Cit][dF]RWC-NH2; disulfide 3-8 (inferred)) | – | – | – | – | – | Emax [1, 3]: 47%
2 | CC(=O)N[C@@H](CCCNC(=N)N)C(=O)N[C@H]1CSSC[C@@H](C(N)=O)NC(=O)[C@@H](Cc2c[nH]c3ccccc23)NC(=O)[C@H](CCCNC(=N)N)NC(=O)[C@@H](Cc2ccc(C(C)(C)C)cc2)NC(=O)[C@H](CCCNC(=N)N)NC(=O)[C@@H](C)NC1=O [CTX-1242, Arg-cyclo(Cys-D-Ala-Arg-D-Phe(4-tBu)-Arg-D-Trp-Cys)] (Ac-RC[dA]R[dPhe(4-tBu)]R[dW]C-NH2; disulfide 2-8 (inferred)) | 0.64 | 0.08 | 5.8 | 2.8 | – | –
3 | CC(=O)N[C@@H](CCCNC(=N)N)C(=O)N[C@H]1CSSC[C@@H](C(N)=O)NC(=O)[C@@H](Cc2c[nH]c3ccccc23)NC(=O)[C@H](CCCNC(=N)N)NC(=O)[C@@H](Cc2ccccc2)NC(=O)[C@H](CCCNC(N)=O)NC(=O)[C@H](C)NC1=O [CTX-1288, Arg-cyclo(Cys-Ala-Cit-D-Phe-Arg-D-Trp-Cys)] (Ac-RCA[Cit][dF]R[dW]C-NH2; disulfide 2-8) | – | – | – | – | 87 | –
4 | CCCC[C@H](NC(=O)[C@H](CCCNC(=N)N)NC(C)=O)C(=O)N[C@H]1CSSC[C@@H](C(N)=O)NC(=O)[C@@H](Cc2c[nH]c3ccccc23)NC(=O)[C@H](CCCNC(=N)N)NC(=O)[C@@H](Cc2ccc(Br)cc2)NC(=O)[C@H](Cc2c[nH]cn2)NC1=O [CTX-1231, Arg-Nle-cyclo(Cys-His-D-Phe(4-Br)-Arg-D-Trp-Cys)] (Ac-R[Nle]CH[dPhe(4-Br)]R[dW]C-NH2; disulfide 3-8 (inferred)) | 0.19 | 3.04 | 64 | 59 | – | EC50 [2, 5]: 2.3 nM
5 | CC(=O)N[C@@H](CCCNC(=N)N)C(=O)N[C@H]1CSSC[C@@H](C(N)=O)NC(=O)[C@@H](Cc2c[nH]c3ccccc23)NC(=O)[C@H](CCCNC(=N)N)NC(=O)[C@@H](Cc2ccc(-c3ccccc3)cc2)NC(=O)[C@H](CCCNC(=N)N)NC(=O)[C@@H](C)NC1=O [CTX-1243, Arg-cyclo(Cys-D-Ala-Arg-D-Bip-Arg-D-Trp-Cys)] (Ac-RC[dA]R[dBip]R[dW]C-NH2; disulfide 2-8 (inferred)) | 0.21 | 0.38 | 32 | 7.7 | – | –
6 | CC(=O)N[C@@H](CCCNC(=N)N)C(=O)N[C@H]1CSSC[C@@H](C(N)=O)NC(=O)[C@H](Cc2c[nH]c3ccccc23)NC(=O)[C@H](CCCNC(=N)N)NC(=O)[C@@H](Cc2ccc3ccccc3c2)NC(=O)[C@@H]2CCCN2C(=O)[C@@H](C)NC1=O [CTX-2203] (Ac-RC[dA]P[d2Nal]RWC-NH2; disulfide 2-8 (inferred)) | – | 2.45 | 1.4 | 1 | – | EC50 [2, 5]: 12 nM; EC50 [1, 6]: 29 nM
7 | CC(=O)N[C@H]1CSSC[C@@H](C(N)=O)NC(=O)[C@H](Cc2c[nH]c3ccccc23)NC(=O)[C@H](CCCNC(=N)N)NC(=O)[C@@H](Cc2ccccc2)NC(=O)[C@H](Cc2c[nH]cn2)NC(=O)[C@@H](C)NC1=O [CTX-1207, cyclo(Cys-D-Ala-His-D-Phe-Arg-Trp-Cys)] | – | – | – | – | 96 | EC50 ([2]; MC4R cAMP EC50, HEK-293 cells stably expressing hMC4R): 0.91 nM; Emax [1, 3]: 89%; EC50 ([1]; MC3R cAMP EC50, HEK-293 cells stably expressing hMC3R, agonist mode): 8.1 nM; MC4R selectivity vs MC3R ([1]; MC4R versus MC3R): 8.87
8 | CC(=O)N[C@@H](CCCNC(=N)N)C(=O)N[C@H]1CSSC[C@@H](C(N)=O)NC(=O)[C@@H](Cc2c[nH]c3ccccc23)NC(=O)[C@H](CCCNC(=N)N)NC(=O)[C@@H](Cc2ccc(O)cc2)NC(=O)[C@H](CCCNC(=N)N)NC(=O)[C@@H](C)NC1=O [CTX-1237, Arg-cyclo(Cys-D-Ala-Arg-D-Tyr-Arg-D-Trp-Cys)] (Ac-RC[dA]R[dY]R[dW]C-NH2; disulfide 2-8 (inferred)) | 0.24 | 0.08 | 61 | 19 | – | –
9 | CCCC[C@H](NC(=O)[C@H](CCCNC(=N)N)NC(C)=O)C(=O)N[C@H]1CSSC[C@@H](C(N)=O)NC(=O)[C@@H](Cc2c[nH]c3ccccc23)NC(=O)[C@H](CCCNC(=N)N)NC(=O)[C@@H](Cc2ccc(I)cc2)NC(=O)[C@H](Cc2c[nH]cn2)NC1=O [CTX-1233, Arg-Nle-cyclo(Cys-His-D-Phe(4-I)-Arg-D-Trp-Cys)] (Ac-R[Nle]CH[dPhe(4-I)]R[dW]C-NH2; disulfide 3-8 (inferred)) | 0.26 | 1.88 | 16 | 22 | – | EC50 [2, 5]: 2.2 nM; EC50 [1, 6]: 4.1 nM
10 | CC(=O)N[C@H]1CSSC[C@@H](C(N)=O)NC(=O)[C@H](Cc2ccccc2)NC(=O)[C@H](CCCNC(=N)N)NC(=O)[C@@H](Cc2ccc(Br)cc2)NC(=O)[C@H](CCCNC(=N)N)NC(=O)CNC1=O [CTX-1640, cyclo(Cys-Gly-Arg-D-Phe(4-Br)-Arg-Phe-Cys)] (Ac-CGR[dPhe(4-Br)]RFC-NH2; disulfide 1-7 (inferred)) | 3.72 | 3.09 | 100 | 27 | – | EC50 [1, 6]: 10 nM
11 | CC(=O)N[C@@H](CCCNC(=N)N)C(=O)N[C@H]1CSSC[C@@H](C(N)=O)NC(=O)[C@@H](Cc2c[nH]c3ccccc23)NC(=O)[C@H](CCCNC(=N)N)NC(=O)[C@@H](Cc2c[nH]c3ccccc23)NC(=O)[C@H](CCCNC(=N)N)NC(=O)[C@@H](C)NC1=O [CTX-1275, Arg-cyclo(Cys-D-Ala-Arg-D-Trp-Arg-D-Trp-Cys)] (Ac-RC[dA]R[dW]R[dW]C-NH2; disulfide 2-8 (inferred)) | 0.22 | 0.27 | 24 | – | – | EC50 [2, 5]: 906 nM; MC3R cAMP % max activation [1, 4]: (3.3%); EC50 [1, 6]: 248 nM
12 | CCCC[C@H](NC(=O)[C@H](CCCNC(=N)N)NC(C)=O)C(=O)N[C@H]1CSSC[C@@H](C(N)=O)NC(=O)[C@H](Cc2ccccc2)NC(=O)[C@H](CCCNC(=N)N)NC(=O)[C@@H](Cc2ccccc2)NC(=O)[C@H](Cc2c[nH]cn2)NC1=O [CTX-1625, Arg-Nle-cyclo(Cys-His-D-Phe-Arg-Phe-Cys)] (Ac-R[Nle]CH[dF]RFC-NH2; disulfide 3-8) | – | – | – | – | 101 | –
13 | CCCC[C@H](NC(=O)[C@H](CCCNC(=N)N)NC(C)=O)C(=O)N[C@H]1CSSC[C@@H](C(N)=O)NC(=O)[C@H](Cc2c[nH]c3ccccc23)NC(=O)[C@H](CCCNC(=N)N)NC(=O)[C@@H](Cc2ccccc2)NC(=O)[C@H](CCCCNC(N)=O)NC1=O [CTX-1618, Arg-Nle-cyclo(Cys-homo-Cit-D-Phe-Arg-Trp-Cys)] (Ac-R[Nle]C[hCit][dF]RWC-NH2; disulfide 3-8 (inferred)) | – | – | – | – | 94 | EC50 [2, 7]: 1.8 nM
14 | CC(=O)N[C@@H](CCCNC(=N)N)C(=O)N[C@H]1CSSC[C@@H](C(N)=O)NC(=O)[C@H](Cc2c[nH]c3ccccc23)NC(=O)[C@H](CCCNC(=N)N)NC(=O)[C@@H](Cc2ccccc2)NC(=O)[C@H](CCCNC(=N)N)NC(=O)CNC1=O [CTX-1293, Arg-cyclo(Cys-Gly-Arg-D-Phe-Arg-Trp-Cys)] (Ac-RCGR[dF]RWC-NH2; disulfide 2-8) | – | – | – | – | 87 | EC50 [2, 7]: 0.25 nM
